Like-named read-outs stand apart in the source and are kept apart here.
Tests used:
[1] = tested on: IL-17A gene expression; assay: Effect on IL-23-induced IL-17A gene expression in mice; format: in vivo; conditions: Balb/c mice, ear tissue 24 hr after intradermal IL-23; 100 mg/kg orally 30 min before and 8 hr after IL-23; versus the negative control group
Description: Effect on IL-23-Induced IL-17A Gene Expression in Mice
A mouse IL-23 solution (500 ng/10 μL, prepared by Takeda Pharmaceutical Company Limited) or PBS (10 μL, negative control group) was administered intradermally in the ear of Balb/c mice (Charles River Japan, male, 7 weeks old). Twenty-four hr after administration, the ear was resected under isoflurane anesthesia. The test compound was suspended in 0.5% methylcellulose and administered orally 30 min before and 8 hr after IL-23 administration.
RNA extraction from the ear tissue and quantitative PCR were performed as follows. Specifically, ear tissue 5 mm in diameter was punched from an area of the resected ear centering on the IL-23 injection site, and the tissue was immersed in RNAlater (QIAGEN) for at least 18 hr. The RNAlater-treated ear tissue was homogenized in 350 μL of RLT buffer (RNeasy mini kit, QIAGEN) and treated (55° C., 10 min) with Proteinase K (QIAGEN). Total RNA was then extracted according to the RNeasy mini kit protocol. The RNA thus obtained was then reverse transcribed into cDNA using the High-Capacity RNA-to-cDNA kit (Applied Biosystems), and the amount of each cytokine expressions was measured by real-time PCR (Viia7™, Applied Biosystems). The PCR buffer used was TaqMan Fast Advanced Master Mix (Applied Biosystems), and TaqMan Gene Expression Assays (Applied Biosystems) Mm00439618 m1 (IL-17A) and 4352341E (β-actin) were used for cytokine gene detection. The IL-17A gene expression level was normalized to the β-actin gene expression level, and the percent inhibition of IL-17A gene expression with the test compound was then calculated.
The results obtained with the above-described method (percent inhibition of IL-17A gene expression with oral administration of the test compound) are shown in Table 3.

[2] = molecular target: T1, RORγt (Homo sapiens, UniProt P51449); assay: RORγt binding test (TR-FRET, fluorescent-labeled cholesterol); conditions: read-out: binding inhibitory rate (%) of fluorescent-labeled cholesterol to RORγt at test compound 1 μM
T1 sequence (P51449 1-497 isoform P51449-2): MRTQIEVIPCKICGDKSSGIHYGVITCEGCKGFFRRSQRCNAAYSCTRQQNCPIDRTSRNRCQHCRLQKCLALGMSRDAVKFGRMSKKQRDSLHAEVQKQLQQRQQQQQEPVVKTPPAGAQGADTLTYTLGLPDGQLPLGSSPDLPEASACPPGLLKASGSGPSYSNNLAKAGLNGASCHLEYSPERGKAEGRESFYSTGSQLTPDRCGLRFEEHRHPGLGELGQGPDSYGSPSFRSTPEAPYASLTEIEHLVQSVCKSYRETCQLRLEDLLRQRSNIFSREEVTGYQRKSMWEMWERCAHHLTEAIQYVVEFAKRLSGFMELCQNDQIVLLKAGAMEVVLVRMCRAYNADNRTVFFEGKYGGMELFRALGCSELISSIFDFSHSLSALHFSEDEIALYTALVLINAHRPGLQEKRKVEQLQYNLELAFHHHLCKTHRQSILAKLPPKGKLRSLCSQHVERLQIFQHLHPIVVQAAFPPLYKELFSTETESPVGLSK
Procedure, shortened: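 His-tagged RORγt and BODIPY-cholesterol were incubated with compound for 20 min at room temperature in Tris-HCl pH 7.5, 100 mM NaCl, 1 mM DTT and 0.1% BSA. Terbium anti-His antibody was then added for a further 20 min.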

[3] = molecular target: T1, RORγt; assay: Cofactor recruitment test (Alpha Screen, biotinylated SRC-1 peptide); format: biochemical; conditions: read-out: signal value inhibitory rate (%) at test compound 1 μM
Description: Cofactor Recruitment Test
Cofactor recruitment test was performed by Alpha Screen (Histidine Detection Kit, PerkinElmer) method. First, a test compound was diluted with an assay buffer (50 mM Tris-HCl (pH 7.5), 50 mM KCl, 1 mM DTT, 0.1% BSA) and added to a 384 well plate by 5 μL. […] The mixture was stood in a dark place for 1 hr, and the signal value was measured by Envision (PerkinElmer).

[4] = molecular target: T1, RORγt; assay: Jurkat reporter test (human IL-17 ROR response element luciferase reporter); format: cell-based; conditions: read-out: luminescence level inhibitory rate (%) at test compound 3 μM
Procedure, shortened: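 Luminescence (Bright-Glo, 10 min, RT) was measured after overnight compound treatment of electroporated Jurkat cells (1350 V, 10 ms interval, 3 pulses). The reaction medium was RPMI with 10% lipid-reduced FCS, 10 mM HEPES (pH 7.5) and 5 μM lovastatin.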

[5] = test compound 3 μM, Jurkat cells

Structure (SMILES) | percent inhibition of IL-17A gene expression [1] [%] | inhibition at 1 µM [2] [%] | inhibition at 1 µM [3] [%] | inhibition at 3 µM [4, 5] [%] | inhibition at 3 µM ([4]; Jurkat) [%]
COc1ccc([C@H](C(=O)Nc2ccc([Si](C)(C)C)cc2)N(C)C(=O)c2cc(O)no2)cc1 [Example 14, 3-hydroxy-N-((1R)-1-(4-methoxyphenyl)-2-oxo-2-((4-(trimethylsilyl)phenyl)amino)ethyl)-N-methyl-1,2-oxazole-5-carboxamide] | 53 |  |  |  | 
COc1ccc([C@H](C(=O)Nc2cc(F)c([Si](C)(C)C)c(F)c2)N(C)C(=O)c2cc(O)no2)cc1 [Example 23, N-((1R)-2-((3,5-difluoro-4-(trimethylsilyl)phenyl)amino)-1-(4-methoxyphenyl)-2-oxoethyl)-3-hydroxy-N-methyl-1,2-oxazole-5-carboxamide] | 71 |  |  |  | 
COCc1ccc([C@@H](NC(=O)Cn2cnccc2=O)C(=O)Nc2ccc(C(C)(C)C)c(F)c2)cc1 [Example 100, (2R)—N-(4-tert-butyl-3-fluorophenyl)-2-(4-(methoxymethyl)phenyl)-2-(((6-oxopyrimidin-1(6H)-yl)acetyl)amino)acetamide] |  | 99.6 | 86.3 | 99.4 | 
COCc1ccc([C@@H](NC(=O)[C@@H]2CNC(=O)C2)C(=O)Nc2ccc(C(C)(C)C)c(F)c2)cc1 [Example 101, (3S)—N-((1R)-2-((4-tert-butyl-3-fluorophenyl)amino)-1-(4-(methoxymethyl)phenyl)-2-oxoethyl)-5-oxopyrrolidine-3-carboxamide] |  | 101 | 87.6 | 99.5 | 
COCc1ccc([C@@H](NC(=O)[C@H]2CNC(=O)C2)C(=O)Nc2ccc(C(C)(C)C)c(F)c2)cc1 [Example 102, (3R)—N-((1R)-2-((4-tert-butyl-3-fluorophenyl)amino)-1-(4-(methoxymethyl)phenyl)-2-oxoethyl)-5-oxopyrrolidine-3-carboxamide] |  | 100 | 83.8 | 97.8 | 
COCc1ccc([C@@H](NC(=O)CC(C)(C)C(=O)O)C(=O)Nc2cc(F)c([Si](C)(C)C)c(F)c2)cc1 [Example 103, 4-(((1R)-2-((3,5-difluoro-4-(trimethylsilyl)phenyl)amino)-1-(4-(methoxymethyl)phenyl)-2-oxoethyl)amino)-2,2-dimethyl-4-oxobutanoic acid] |  | 102 | 96.2 |  | 100
COCc1ccc(C(NC(=O)[C@@H]2CNC(=O)C2)C(=O)Nc2ccc(C(C)(C)C)c(Cl)c2)cc1 (stereo partly drawn) [Example 104, (3S)—N-(2-((4-tert-butyl-3-chlorophenyl)amino)-1-(4-(methoxymethyl)phenyl)-2-oxoethyl)-5-oxopyrrolidine-3-carboxamide] |  | 101 | 74.9 | 96.1 | 
COCc1ccc([C@@H](NC(=O)Cc2nnc(C)o2)C(=O)Nc2ccc(C(C)(C)C)c(F)c2)cc1 [Example 105, (2R)—N-(4-tert-butyl-3-fluorophenyl)-2-(4-(methoxymethyl)phenyl)-2-(((5-methyl-1,3,4-oxadiazol-2-yl)acetyl)amino)acetamide] |  | 101 | 85.5 | 100 | 
COCc1ccc([C@@H](NC(=O)CCCC(=O)O)C(=O)Nc2cc(F)c([Si](C)(C)C)c(F)c2)cc1 [Example 107, 5-(((1R)-2-((3,5-difluoro-4-(trimethylsilyl)phenyl)amino)-1-(4-(methoxymethyl)phenyl)-2-oxoethyl)amino)-5-oxopentanoic acid] |  | 103 | 95.7 |  | 100
COCc1ccc([C@@H](NC(=O)CCC(=O)O)C(=O)Nc2cc(F)c([Si](C)(C)C)c(F)c2)cc1 [Example 108, 4-(((1R)-2-((3,5-difluoro-4-(trimethylsilyl)phenyl)amino)-1-(4-(methoxymethyl)phenyl)-2-oxoethyl)amino)-4-oxobutanoic acid] |  | 100 | 95.3 |  | 99.7
CC(C)(C)c1ccc(NC(=O)[C@H](NC(=O)[C@@H]2CNC(=O)C2)c2ccc3c(c2)CCO3)cc1F [Example 111, (3S)—N-((1R)-2-((4-tert-butyl-3-fluorophenyl)amino)-1-(2,3-dihydro-1-benzofuran-5-yl)-2-oxoethyl)-5-oxopyrrolidine-3-carboxamide] |  | 100 | 53 | 97.4 | 
Cn1ncc2cc([C@@H](NC(=O)[C@@H]3CNC(=O)C3)C(=O)Nc3ccc([Si](C)(C)C)c(F)c3)ccc21 [Example 112, (3S)—N-((1R)-2-((3-fluoro-4-(trimethylsilyl)phenyl)amino)-1-(1-methyl-1H-indazol-5-yl)-2-oxoethyl)-5-oxopyrrolidine-3-carboxamide] |  | 103 | 83.2 |  | 100
COCc1ccc([C@@H](NC(=O)[C@H]2CNC(=O)C2)C(=O)Nc2cc(F)c(C(C)(C)C)c(F)c2)cc1 [Example 113, (3R)—N-((1R)-2-((4-tert-butyl-3,5-difluorophenyl)amino)-1-(4-(methoxymethyl)phenyl)-2-oxoethyl)-5-oxopyrrolidine-3-carboxamide] |  | 102 | 83.9 | 99.7 | 
COCc1ccc([C@@H](NC(=O)Cc2cc(O)no2)C(=O)Nc2cc(F)c(C(C)(C)C)c(F)c2)cc1 [Example 114, (2R)—N-(4-tert-butyl-3,5-difluorophenyl)-2-(((3-hydroxy-1,2-oxazol-5-yl)acetyl)amino)-2-(4-(methoxymethyl)phenyl)acetamide] |  | 101 | 90.1 | 102 | 
COCc1ccc([C@@H](NC(=O)Cn2ccc(=O)[nH]c2=O)C(=O)Nc2ccc(C(C)(C)C)c(F)c2)cc1 [Example 116, (2R)—N-(4-tert-butyl-3-fluorophenyl)-2-(((2,4-dioxo-3,4-dihydropyrimidin-1(2H)-yl)acetyl)amino)-2-(4-(methoxymethyl)phenyl)acetamide] |  | 103 | 76.6 | 99.8 | 
COCc1ccc([C@@H](NC(=O)CC2CC(=O)NC(=O)C2)C(=O)Nc2ccc(C(C)(C)C)c(F)c2)cc1 [Example 117, (2R)—N-(4-tert-butyl-3-fluorophenyl)-2-(((2,6-dioxopiperidin-4-yl)acetyl)amino)-2-(4-(methoxymethyl)phenyl)acetamide] |  | 103 | 78.4 | 98.5 | 
COc1ccc(C(NC(=O)Cn2cnc3ccccc32)C(=O)Nc2ccc([Si](C)(C)C)cc2)cc1 (centres unmarked) [Example 289, 2-((1H-benzimidazol-1-ylacetyl)amino)-2-(4-methoxyphenyl)-N-(4-(trimethylsilyl)phenyl)acetamide] |  | 99.6 | 87.2 |  | 100
Cn1ncc2cc([C@@H](NC(=O)Cc3cc(O)no3)C(=O)Nc3cc(F)c(C(C)(C)C)c(F)c3)ccc21 [Example 419, (2R)-N-(4-tert-butyl-3,5-difluorophenyl)-2-(((3-hydroxy-1,2-oxazol-5-yl)acetyl)amino)-2-(1-methyl-1H-indazol-5-yl)acetamide] |  | 103 | 87 | 101 | 

Source: patent US11851449B2, “Heterocyclic amide compounds having an RORvt inhibitory action” (TAKEDA PHARMACEUTICAL COMPANY LIMITED, priority 2013, dated 2023)
